Results from patent publication US5616575A (priority 1995, dated 1997).
“Also recorded” adds a separate entry of the source.

What was measured:
[1] = mice; cited from earlier work
[2] = fighting mice; cited from earlier work
[3] = humans; cited from earlier work
[4] = rodents; cited from earlier work
5-HT transporter = molecular target: T1, 5-HT transporter (Homo sapiens, UniProt P31645); assay: Full competition experiments at the 5-HT transporter in human occipital cortex ([125I]RTI55); assay type: binding; conditions: for relative potency at the 5-HT transporter: comparison with ibogaine or noribogaine, in words; for IC50 / nH: human occipital cortex, mean ± S.D.; for IC50: 0.01 nM [125I]RTI55, 1 μM benztropine, 25° C., two determinations in triplicate; for nH: 0.01 nM [125I]RTI55
T1 construct: from tissue; host or cells: human occipital cortex membranes
Experimental: ^a Membranes isolated from human occipital cortex were incubated for
hr at 25° C., in the presence of 1 μM benztropine, with 0.01 nM
[^125 I]RTI55 and varying concentrations of the respective compounds.
Data analysis was performed with EBDA (DRUG). The data presented are the
mean ± S.D. of two independent determinations conducted in triplicate,
nonspecific binding was evaluated using 50 μm-cocaine. (See, J.K.
Staley et al., J. Neurochem., 62, 549 (1994)).

[5] = In vivo evaluation, behavior of rats after injection; conditions: for tremorigenic effect relative to ibogaine: comparison in words with ibogaine at 40 mg/kg; for tremors: 7a 100 μmol/kg; for tremors / locomotor activity and ataxia / behavioral symptoms: 7b comparable dose; for locomotor activity and ataxia / behavioral symptoms: injection, 7a and 7c 100 μmol/kg, 7d 150 μmol/kg
Experimental: Onset of symptoms was evident within 2 minutes, and the effects were most severe by 5 min. Signs of recovery became evident by 40 min post-injection and the animals appeared fully recovered after 60 min. Mild tremors were observed between 3 and 8 min post-injection.

kappa-1 receptor [6] = molecular target: T2, kappa-1 receptor (Homo sapiens, UniProt P41145); assay: Competition binding at the kappa-1 receptor of human insular cortex ([3H]U693593); conditions: for IC50: IC50, human insular cortex; for IC50 / nH: mean ± S.D.; for relative potency at the kappa-1 receptor: comparison with ibogaine, in words; for nH: human insular cortex
T2 construct: from tissue; host or cells: human insular cortex membranes
Experimental: Data analysis was performed with EBDA (DRUG); NS = nonspecific
The data presented are the mean ± S.D. of two independent

kappa-1 receptor [7] = assay: Preliminary screening, binding at the kappa-1 receptor; conditions: in words
Experimental: To assess the potential addiction-interrupting effects of the newly synthesized iboganoids, compounds 7a,b,c were tested for binding at the 5-HT transporter and the […] and kappa-2 opiate receptors, molecular targets known to modulate mesolimbic dopaminergic function.

NMDA receptor = NMDA receptor binding in human caudate (FIG. 3A); conditions: comparison in words
Experimental: The affinity of compounds 7a-c for the NMDA receptor was measured in human brain tissue employing the methodology of P. Popik et al., Psychopharmacol., 114, 672 (1994).

[8] = test system: dopamine levels in the nucleus accumbens and striatum; conditions: nucleus accumbens and striatum (ibogaine: striatum); cited from earlier work
[9] = humans; cited from earlier work; remark: listed apart in the source
[10] = dogs and rabbits; cited from earlier work
[11] = cats; cited from earlier work
[12] = other animals; cited from earlier work
[13] = rats, 100 μmol/kg, post-injection

CN1CCc2c([nH]c3ccccc23)C(c2ccccc2)C1 (stereo not shown) [3-methyl-5-phenyl-1,2,3,4,5,6-hexahydroazepino[4,5-b]indole]
antidepressant activity [1]: displayed antidepressant activity

c1ccc(C2CNCCc3c2[nH]c2ccccc32)cc1 (stereo not shown) [5-phenyl-1,2,3,4,5,6-hexahydroazepino[4,5-b]indole]
antidepressant activity [1]: displayed antidepressant activity

Cn1c2c(c3ccccc31)CCNCC2 [6-methyl-1,2,3,4,5,6-hexahydroazepino[4,5-b]indole]
aggressive behavior [2]: antagonize aggressive behavior in fighting mice | neuroleptic activity [3]: did not exhibit neuroleptic activity in humans | conditioned avoidance [4]: block conditioned avoidance | hypothermia and anorexigenic behavior [4]: induce hypothermia and anorexigenic behavior in rodents

CCN1CCc2c(sc3ccccc23)C(c2ccccc2)C1 (stereo not shown) [Compound 7a, 3-Ethyl-5-phenyl-1,2,3,4,5-pentahydroazepino[4,5-b]benzothiophene]
relative potency at the 5-HT transporter (5-HT transporter): two- to threefold more potent than ibogaine | IC50 (5-HT transporter): 0.21 ± 0.01 µM | nH (5-HT transporter): 1.0 ± 0.1 | tremorigenic effect relative to ibogaine [5]: much less tremorigenic than ibogaine | breathing ([5]; rats, 100 μmol/kg): Breathing appeared labored | onset of symptoms ([5]; rats, 100 μmol/kg): ≤ 2 min | tail posture ([5]; rats, 100 μmol/kg): the tail remained outstretched and limp | time at which effects were most severe ([5]; rats, 100 μmol/kg): ≤ 5 min | time at which signs of recovery became evident [5, 13]: ≤ 40 min | time to full recovery [5, 13]: 60 min | tremors ([5]; rats): Mild tremors | locomotor activity and ataxia / behavioral symptoms ([5]; rats): severe reduction in locomotor activity and ataxia | IC50 (kappa-1 receptor [6]; NS = 10 μM Naloxone): 17.2 ± 3.18 µM | IC50 (kappa-1 receptor [6]; NS, Computer-derived): 10.1 ± 2.01 µM | relative potency at the kappa-1 receptor (kappa-1 receptor [6]): essentially equipotent with ibogaine | nH (kappa-1 receptor [6]; NS = 10 μM Naloxone): 0.5 ± 0.0 | nH (kappa-1 receptor [6]; NS, Computer-derived): 1.3 ± 0.1 | activity/affinity at the kappa-1 receptor (kappa-1 receptor [7]): some activity

CCN1CCc2c(sc3ccccc23)C(c2cccc([N+](=O)[O-])c2)C1 (stereo not shown) [Compound 7b, 3-Ethyl-5-(3-nitrophenyl)-1,2,3,4,5-pentahydroazepino[4,5-b]benzothiophene]
relative potency at the 5-HT transporter (5-HT transporter): two- to threefold more potent than ibogaine | IC50 (5-HT transporter): 0.26 ± 0.06 µM | nH (5-HT transporter): 1.0 ± 0.2 | tremorigenic effect relative to ibogaine [5]: much less tremorigenic than ibogaine | tremors ([5]; rats): no tremors were observed | activity/affinity at the kappa-1 receptor (kappa-1 receptor [7]): poor affinity

CCN1CCc2c(sc3ccccc23)C(c2cccc(Br)c2)C1 (stereo not shown) [Compound 7c, 3-Ethyl-5-(3-bromophenyl)-1,2,3,4,5-pentahydroazepino[4,5-b]benzothiophene]
relative potency at the 5-HT transporter (5-HT transporter): essentially equipotent with the naturally occurring compound | IC50 (5-HT transporter): 0.82 ± 0.16 µM | nH (5-HT transporter): 1.2 ± 0.2 | locomotor activity and ataxia / behavioral symptoms ([5]; rats): No effects were observed | IC50 (kappa-1 receptor [6]; NS = 10 μM Naloxone): 117 ± 14.5 µM | IC50 (kappa-1 receptor [6]; NS, Computer-derived): 49 ± 0.96 µM | relative potency at the kappa-1 receptor (kappa-1 receptor [6]): significantly less potent | nH (kappa-1 receptor [6]; NS = 10 μM Naloxone): 0.6 ± 0.1 | nH (kappa-1 receptor [6]; NS, Computer-derived): 0.9 ± 0.1 | activity/affinity at the kappa-1 receptor (kappa-1 receptor [7]): some activity | relative potency at the NMDA site (NMDA receptor): equipotent with ibogaine; also recorded: about fivefold more potent than 7a,b and noribogaine

CC[C@H]1C[C@H]2C[C@H]3c4[nH]c5ccc(OC)cc5c4CCN(C2)[C@@H]13 [Ibogaine, ibogaine]
dopamine levels [8]: reduce dopamine levels in the striatum | craving / drug-free status [9]: some addicts reported alleviation or cessation of craving, and a few remained drug-free for several years thereafter; also recorded: effective in reducing craving in some humans while others were unaffected | excitatory effects and local anesthetic activity [10]: unusual excitatory effects and local anesthetic activity | psychostimulant effects [11]: psychostimulant which caused phobia, ataxia and tremors in cats | number of doses required for comparable effects [12]: up to three doses

CCC1CC2CC3c4[nH]c5ccc(O)cc5c4CCN(C2)C13 (stereo not shown) [Noribogaine, 12-hydroxyibogamine, reference compound]
nH (5-HT transporter): 0.78 ± 0.06 | IC50 (kappa-1 receptor [6]; 0.3 nM [3H]U693593, 1 hr, 25° C., NS definition not stated in line): 4.24 ± 0.28 µM | nH (kappa-1 receptor [6]; NS definition not stated in line): 1.1 ± 0.1

CC[C@H]1C[C@@H]2CN3CCc4c([nH]c5ccccc45)[C@](C(=O)OC)(C2)[C@H]13 [R-coronaridine]
dopamine levels [8]: reduced dopamine levels in the nucleus accumbens and striatum

COC(=O)[C@H]1[C@@H](OC(=O)c2ccccc2)C[C@@H]2CC[C@H]1N2C [cocaine, reference compound]
reversal of the reduction in locomotor activity induced by 7b ([5]; rats, cocaine 10 mg/kg ip, injected 10 min after 7b): reversed the reduction in locomotor activity induced by 7b

R-ibogamine [R-ibogaine]
dopamine levels [8]: reduced dopamine levels in the nucleus accumbens and striatum
